According to patent US12560588B2, “High-efficiency screening method for RNA-targeting drugs using nanopores” (KOREA RESEARCH INSTITUTE OF BIOSCIENCE AND BIOTECHNOLOGY, priority 2020, dated 2026):

Columns and labels:
ARS = test: 1D CPMG ligand-observed NMR; details: absence vs presence of ARS
3′L-iav-RNA = format: binding, influenza A virus
5′L-iav-RNA = format: binding, influenza A virus
[1] = test system: adenine-sensing riboswitch (ARS); test: α-hemolysin nanopore measurement of ARS with ligand; format: binding, Vibrio vulnificus; details: for dwell time relative to free ARS: type-II translocation event, individual compounds
Method: RNAs were synthesized by Integrated DNA Technologies (Coralville, IA, USA). All RNAs were dialyzed against 10 mM potassium phosphate (pH 6.2) buffer for at least 12 hours. After heating RNAs at 95° C. for 5 minutes, it was cooled quickly in the ice and annealed. The nanopore experiment was performed at RNA concentration of 10 to 500 nm. α-hemolysin (α-HL) protein was purchased from List Biological Laboratories Inc. (CAMPBELL, CA, USA). 1,2-diphytanoylsn-glycero-3-phosphocholine(DPhPC) was purchased from Avanti Polar Lipids (Alabaster, Al, USA).
Specifically, in the buffer containing 10 mM potassium phosphate (pH 6.2), 2 mM MgCl2 and 1M KCl, free ARS or ARS-adenine complex was added to the cis face of a lipid bilayer with a single α-HL nanopore. If the voltage of (+) 100 mV is applied on the nanopore, the free ARS or the ARS-adenine complex is driven by electrophoresis to block the ion current. The nanopore events of the free ARS and ARS-adenine complex were statistically analyzed (a to c in FIG. 2).
The average I/I0 value of level 1 (III1) of the type-II event is 0.45, which corresponds to about 50% of level 2 (III2). After separating the types I and II nanopore events of the complex, each type of event was statistically analyzed. The type I and II events of the ARS-adenine complex is different in the average value and dwell time of I/I0 ((b) to (c) in FIG. 3).

[2] = test system: PreQ1-sensing riboswitch (PreQ1 rs); test: α-hemolysin nanopore measurement of PreQ1 rs with PreQ1; format: binding
Method: The PreQ1 rs is synthesized by Integrated DNA Technologies (Coralville, IA, USA). The PreQ1 rs used in the test was designed by adding GG sequences to the 5′ end of the 34nt basic aptamer sequences for the ease of secondary verification (NMR analysis, etc.) of the riboswitch structural change by binding of the PreQ1 ligand. The PreQ1 rs RNAs were dialyzed against 10 mM potassium phosphate (pH 6.2) buffer for at least 12 hours. After heating RNAs at 95° C. for 5 minutes, it was cooled quickly in the ice and annealed. All nanopore tests were performed at 500 nM concentration.
Specifically, in the buffer containing 10 mM potassium phosphate (pH 6.2) and 1M KCl, 500 nM of free PreQ1 rs was added to the cis face of a lipid bilayer with the α-HL nanopore. It was observed that the PreQ1 rs was driven by electrophoresis to block the ion current if the (+) voltage was applied on the nanopore.
Since then, to confirm whether the interaction of ligands can be detected at a single molecule level, the PreQ1 rs-PreQ1 complex was added to the cis face of the lipid bilayer with the nanopore in the buffer containing 10 mm phosphate (pH 6.2) and 1M KCl. When the (+) voltage is applied to the nanopore, the ion current is blocked as the PreQ1 rs-PreQ1 complex enters the nanopore by electrophoresis. In the current blockade event of the PreQ1 rs-PreQ1 complex, both type A and type B events were observed, and active nanopore current traces were confirmed (FIG. 17, bottom panel).

TPP riboswitch (TRS) = format: binding
[3] = test system: adenine-sensing riboswitch (ARS); test: 1D 1H NMR of ARS with adenine; details: high salt concentration (1M KCl)

Oc1cc(O)c2c(c1)O[C@H](c1ccc(O)c(O)c1)[C@H](O)C2 [(−)-epicatechin]
binding to ARS by 1D CPMG (ARS): non-binding

Nc1ncnc2c1ncn2[C@@H]1O[C@H](COP(=O)(O)OP(=O)(O)OP(=O)(O)O)[C@@H](O)[C@H]1O [ATP]
binding to ARS by 1D CPMG (ARS): non-binding

COc1cc2nc(N3CCNCC3)nc(N)c2cc1OC [DPQ, 6,7-dimethoxy-2-(1-piperazinyl)-4-quinazolinamine]
nanopore average dwell time (3′L-iav-RNA): 9.52 ms | average nanopore dwell time (5′L-iav-RNA): 1.14 ms | dwell time (5′L-iav-RNA): 1.47 ms

O=C(/C=C/c1ccc(O)c(O)c1)O[C@@H]1[C@H](O)C[C@@](O)(C(=O)O)C[C@H]1OC(=O)/C=C/c1ccc(O)c(O)c1 [NC1, 3,4-dicaffeoylquinic acid]
nanopore event type observed ([1]; ARS with ligand): types II translocation event | dwell time relative to free ARS [1]: more than twice | binding to ARS by 1D CPMG (ARS): definite binding

O=C(/C=C/c1ccc(O)c(O)c1)O[C@H]1[C@H](O)C[C@](O)(C(=O)O)C[C@H]1OC(=O)/C=C/c1ccc(O)c(O)c1 [NC2, 4,5-dicaffeoylquinic acid]
nanopore event type observed ([1]; ARS with ligand): types II translocation event | dwell time relative to free ARS [1]: more than twice | binding to ARS by 1D CPMG (ARS): definite binding

O=C(O)[C@H]1O[C@@H](Oc2cc(O)c3c(=O)cc(-c4ccc(O)c(O)c4)oc3c2)[C@H](O)[C@@H](O)[C@@H]1O [NC4, luteolin-7-glucuronide]
nanopore event type observed ([1]; ARS with ligand): types II translocation event | dwell time relative to free ARS [1]: more than twice | binding to ARS by 1D CPMG (ARS): definite binding

NCC1C=Nc2nc(N)[nH]c(=O)c21 (stereo not shown) [PreQ1, 7-aminomethyl-7-deazaguanine]
type A event rate ([2]; PreQ1 rs-PreQ1 complex): 26.5% | type B event rate ([2]; PreQ1 rs-PreQ1 complex): 73.5% | type B event rate increase versus free PreQ1 rs ([2]; ligand-bound state): about 1.5 times

Cc1ncc(C[n+]2csc(CCO[P@](=O)(O)OP(=O)(O)O)c2C)c(N)n1 [TPP, thiamine pyrophosphate]
average dwell time (TPP riboswitch (TRS)): 0.22 ms | dwell time of type-I event (TPP riboswitch (TRS)): 0.21 ms | dwell time of type-II event (TPP riboswitch (TRS)): 4.37 ms | type-II dwell time increase versus free TRS (TPP riboswitch (TRS)): 1.3 times | type-II event rate (TPP riboswitch (TRS)): 14.3% | type-II event rate increase versus free TRS (TPP riboswitch (TRS)): 1.6 times

Nc1ncnc2nc[nH]c12 [adenine]
binding to ARS by imino proton peaks [3]: bound | nanopore event type observed ([1]; ARS with ligand): mixture of the type I and type-II events | average dwell time (td) ([1]; ARS with ligand, all events, +100 mV, 1M KCl): 0.63 ms | dwell time of the type-I event (tI) ([1]; ARS-adenine complex): 0.28 ms | dwell time of the type-II event (tII) ([1]; ARS-adenine complex): 2.14 ms | nanopore dwell time of the type-II event (tII) ([1]; adenine added to MIX-3): 2.52 ms | type-II dwell time relative to free ARS ([1]; adenine added to MIX-3): up to 6.6 times | type-II dwell time relative to the type-I event ([1]; adenine-bound ARS): 7.64 times

NCCCS(=O)(=O)O [tramiprosate]
binding to ARS by 1D CPMG (ARS): non-binding

Neomycin
average nanopore dwell time (5′L-iav-RNA): 3.48 ms | dwell time increase versus free viral RNA (5′L-iav-RNA): about 8.1 times
